pIC50: −log10 of the molar value.
Experiments:
[1] = system: eight AML cell lines and normal PBMC; assay: IL-1 family cytokine induction across the cell panel; type: cell-based, human
Method: (§1) For cytokine assays on AML cell lines, cells were seeded at 1 million per mL, 3 mL per well of 6-well plates and allowed set overnight. The next day, cells were treated with 3 μL 1000× working stock of compounds of interest.
(§2) IL-1α (Meso Scale Disgnostics, Cat No. K151RBD), IL-1β (Meso Scale Disgnostics, Cat No. K151QPD), IL-1RA (Meso Scale Disgnostics, Cat No. K151WTD), IL-18 (Meso Scale Disgnostics, Cat No. K151VJK), TNFa (Meso Scale Disgnostics, Cat No. K151QWD), VEGF Meso Scale Disgnostics, Cat No. K151RHD) levels were measured by (Meso Scale Disgnostics assay kits following manufacturer's instructions. Measurements were made on a MESO™ SECTOR S 600 plate reader (Meso Scale Disgnostics).
(§3) The level of intracellular pro IL-1β and released IL-1β in eight AML cell lines and normal PBMC treated with a titration of Compound 1 over a 48 hour period was assessed. (see FIGS. 1A-1C, Table 2). Supernatant IL-1βb level was induced over 5 fold in 6 out of 8 AML cell lines and normal PBMC upon Compound 1 treatment compared to DMSO (FIGS. 1A, 1B, and 1C, Table 2).
The maturation of IL-1β can be mediated through classical caspase-1 inflammasome pathway, or a caspase-8 dependent non-canonical inflammasome signaling (Antonopoulos et al. J Biol Chem. 2015, 290(33):20167-84; Chauhan et al. Cell Rep. 2018, 25(9):2354-2368; and Schneider et al. Cell Rep. 2017, 21(13):3846-3859). To understand if classical caspase-1 mediated inflammasome pathway was activated by Compound 1, the levels of an inflammasome marker, IL-18, were tested in response to Compound 1 (FIG. 1B, Table 1), using a known inflammasome stimulant lipopolysaccharide (LPS) as positive control.

THP-1 = assay: Cytokine induction, electrochemiluminescence assay of culture supernatant; type: cell-based, human
Method: as §1
(§4) Human AML cell lines, HL-60 (CCL-240), KG-1 (CCL-246), ML-2 (ACC-15), MOLM-13 (ACC-554), MV-4-11 (CRL-9591), NOMO-1 (ACC-542), TF-1 (CRL-2003), THP-1 (TIB-202), and U937 (CRL-1593) were obtained from American Type Culture Collection (ATCC; Manassas, VA) or Deutsche Sammlung von Mikroorganismen and Zellkulturen (DSMZ, Germany) cell banks. Acute myeloid leukemia cell lines were maintained in RPMI-1640 (ATCC Cat No. 30-2001) containing 20% fetal bovine serum (FBS) (Corning Cat No. 35-010-CV) and maintained in humidified incubators at 5% carbon dioxide.
as §2
(§5) Cell proliferation (CTG) and caspase 3/7 activation (IncuCyte) were analyzed using GraphPad Prism. Electrochemiluminescence data was analyzed using MSD Discovery Workbench platform.
as §3

MV4-11 [2] = assay: as above; type: cell-based, human; settings: MV4-11
Method: as §1, §4, §2, §5, §3

ML-2 = assay: as above; type: cell-based, human; settings: ML-2
Method: as §1, §4, §2, §5, §3

KG-1 [3] = assay: as above; type: cell-based, human
Method: as §1, §4, §2, §5, §3

MOLM-13 [4] = assay: as above; type: cell-based, human; settings: MOLM-13
Method: as §1, §4, §2, §5, §3

[5] = pH 5
[6] = system: isogenic MV4-11 Cas9 cell pair (GCN2); assay: Isogenic cell pair, wildtype GCN2 vs GCN2 deleted; type: cell-based, human
Description: ISR, especially via GCN2 pathway, is one of the key pathways contributed to GSPT1 mediated cell death. GCN2 knock down blocked ATF4 and CHOP induction by Compound 1, and suppressed caspase 3 and caspase 8 activation. GCN2 has been implicated in IL-1β production. GCN2 activation inhibit classical caspase 1 mediated inflammasome activation in intestinal cells and that GCN2 knock down in CD11c+ antigen presenting cells or intestinal epithelial cells leads to enhanced inflammasome activation and IL-1β production. (Ravindran et al. Nature. 2016, 531(7595):523-527). To understand if Compound 1 mediated IL-1β induction is downstream of GCN2 pathway, an isogenic MV4-11 Cas9 cell pair either expressing endogenous wildtype GCN2 or with the gene deleted was used. GCN2 knock down suppressed the induction of phosphor-eIF2a, ATF4, CHOP and cleaved caspase 8 by Compound 1 (FIG. 9A). […] These evidences pointed that pro-[…] up-regulation and secreted IL-1β induction are both downstream effects of GCN2 pathway activation, and distinct from the GCN2 mediated classical inflammasome pathway inhibition reported in gut cells (Ravindran et al. Nature. 2016, 531(7595):523-527).

TF-1 = assay: Cell viability (CELL TITER-GLO), Compound 1 IC50; type: cell-based; settings: Homo sapiens; TF-1 (erythroblast, FAB M6)
Method: (§6) For CELL TITER-GLO® (CTG; Promega) and Incucyte assays, cells were seeded at 0.1 million per mL, 50 μL per well of Corning black 384-well plate and allowed set overnight. The next day, test compounds were dispensed using a Tecan D300e digital dispenser according to manufacturer's instruction.
as §4
(§7) AML cell lines and primary AML were treated in duplicate or triplicates with DMSO or test compounds in 384-well plates for 3 days. Cell viability was determined by CELL TITER-GLO® (CTG; Promega) assay kit according to manufacturer's instructions. Apoptosis was monitored using Caspase 3/7 Green reagent (Essen Biosciences Cat No. 4440). Caspase-3/7 activation levels were quantified using the IncuCyte™ ZOOM basic analyzer.
as §5

NOMO-1 = assay: Cell viability (CELL TITER-GLO), Compound 1 IC50; type: cell-based; settings: Homo sapiens; NOMO-1 (macrophage, FAB M5a)
Method: as §6, §4, §7, §5

MV4-11 [7] = assay: Cell viability (CELL TITER-GLO), Compound 1 IC50; type: cell-based; settings: Homo sapiens; MV4-11 (acute myeloid leukemia, FAB M5)
Method: as §6, §4, §7, §5

KG-1 [8] = assay: Cell viability (CELL TITER-GLO), Compound 1 IC50; type: cell-based; settings: Homo sapiens; KG-1 (myeloblast, FAB M0)
Method: as §6, §4, §7, §5

MOLM-13 [9] = assay: Cell viability (CELL TITER-GLO), Compound 1 IC50; type: cell-based; settings: Homo sapiens; MOLM-13 (monocytic, FAB M5a)
Method: as §6, §4, §7, §5

Hygroscopicity = type: physicochemical
[10] = most cell lines tested (FIG. 1B: ML-2), LPS as positive control

Structure (SMILES): O=C1CCC(N2Cc3cc(CNC(=O)C(F)(F)c4ccc(Cl)cc4)ccc3C2=O)C(=O)N1 (stereo not drawn) [Compound 1, 2-(4-chlorophenyl)-N-((2-(2,6-dioxopiperidin-3-yl)-1-oxoisoindolin-5-yl)methyl)-2,2-difluoroacetamide]
- Supernatant IL-1β level induction compared to DMSO ([1]; in 6 out of 8 AML cell lines and normal PBMC, titration of Compound 1 over a 48 hour period): over 5 fold
- IL-1α, IL-1β and IL-1RA induction [1, 10]: induced IL-1α, IL-1β and IL-1RA post-apoptosis
- IL-18 levels (inflammasome marker) [1, 10]: without significantly increased the levels of IL-18
- IL-1β induction (THP-1): 12.13
- IL-18 induction (THP-1): 2.46
- IL-1β induction (MV4-11 [2]): 16.46
- IL-18 induction (MV4-11 [2]): 0.00
- IL-1β induction (ML-2): 3.48
- IL-18 induction (ML-2): 0.00
- Intracellular pro- and secreted IL-1β induction, time of onset (ML-2): not observed until 48 hours post-treatment
- Secreted IL-1β in cell culture supernatant (ML-2; 24, 48 and 72 hours, doses conferring similar caspase3/7 activation and viability loss): conferred induction
- IL-1β induction (KG-1 [3]): 27.17
- IL-18 induction (KG-1 [3]): 0.38
- IL-1β induction (MOLM-13 [4]): 0.00
- Solution Stability [5]: DS is not stable in solution at pH of 5.0 or above.
- Induction of phosphor-eIF2a, ATF4, CHOP and cleaved caspase 8 ([6]; GCN2 knock down): suppressed
- Intracellular and supernatant IL-1β induction ([6]; GCN2 knock out cells compared to parental cells): markedly suppressed
- Pro-IL-1β upregulation ([6]; absence of GCN2): abolished
- pIC50 (TF-1): 6.98
- pIC50 (NOMO-1): 7.24
- pIC50 (MV4-11 [7]): 7.76
- pIC50 (KG-1 [8]): 8.05
- pIC50 (MOLM-13 [9]): 7.12
- Hygroscopicity (Hygroscopicity): Not hygroscopic

From US12090147B2, “Combination therapy with 2-(4-chlorophenyl)-N-((2-(2,6-dioxopiperidin-3-yl)-1-oxoisoindolin-5-yl)methyl)-2,2-difluoroacetamide” (Celgene Corporation, priority 2019, dated 2024)
